“And” between values parts separate entries of the source, which are not always exact repeats. Equal values may be shown once. “Also recorded” adds a separate entry of the source.
Key:
cultured cells = details: incubation of cultured cells; cited from earlier work
Gne^M712T/M712T mice [1] = test: Rescue by ManNAc feeding: survival of homozygous mutant pups (ManNAc in drinking water of breeding pairs); type: in vivo, mouse
From the text: Gne^M712T/M712T mice. Gne^M712T/M712T knockin mice were generated by targeting the M712T (ATG to ACG) mutation of exon 12 of the murine Gne gene (Gne, Uae1, GenBank NM_015828) (FIG. 2A). The nucleotide sequence for this Gne, Uae1 allele (GenBank NM_015828) without the mutation is shown below for easy reference (SEQ ID NO:3).
The mutant mice were maintained in the C57BL/6J background. Animals were housed in an accredited specific pathogen-free facility in accordance with accepted guidelines. Cages were ventilated in a temperature- and light-controlled environment (22° C., 30%-70% humidity, 12-hour light/12-hour dark cycle). The mice were fed irradiated chow (Prolab 5P75 Isopro 3000; PMI Nutrition International) and sterile water ad libitum. All euthanasia was performed by CO2 inhalation followed by cervical dislocation.
(§1) Breeding pairs of 6-week-old GneM^712T/+ mice were divided into 3 groups. Group I consisted of 9 GneM^712T/+ breeding pairs, who were administered untreated sterilized tap water. Group II consisted of 1 breeding pair of Gne^+/+ mice (wild-type control) and 6 GneM^712T/+ breeding pairs, who were administered water containing 1 mg/ml (˜0.2 g/kg/day) ManNAc (Sigma-Aldrich). […] Group III consisted of 1 Gne^+/+ breeding pair and 7 GneM^712T/+ breeding pairs, who were administered water supplemented with 5 mg/ml (˜1.0 g/kg/day) ManNAc. Water was changed twice weekly. Nursing females continued to be supplied with ManNAc. All mice were weaned from ManNAc at 21 days. Selected whole litters were euthanized at age P2, P6, and P19 for histological, genetic, biochemical, or ultrastructural analysis.
Differences between data groups were evaluated for significance using the 2-tailed Student's t test of unpaired data. For Mendelian distribution analysis, a goodness-of-fit (χ2) test was performed, while for comparisons of survival between treated and untreated mice of all genotypes (Gne^+/+, GneM^712T/+, and GneM^712T/M712T), a 2-tailed Fisher's exact test using a 2×3 table was employed. All data are presented as the mean±SD. A P value less than 0.05 was considered statistically significant.

[2] = Tolerability and growth of ManNAc-treated mice; type: in vivo
Description: as §1

Gne^M712T/M712T mice [3] = test: Mouse histology (H&E) after ManNAc treatment; type: in vivo
Description: Mouse tissues were collected, formalin fixed (10%) and paraffin embedded. Tissue sections ([…]) were stained with H&E following standard procedures (American Histolabs) or subjected to immunohistochemistry with a variety of primary antibodies. Formalin-fixed tissues were deparaffinized in HistoClear II (National Diagnostics) and […] in a series of ethanol solutions. Antigen retrieval was performed for sections that were to be stained with antibodies against Gne/Mnk (by boiling 5 minutes in citric acid-based solution; Vector Laboratories) and against dystrophin (by boiling in 1 mM EDTA according the manufacturer's protocol; AbCam). The sections were blocked (2% BSA, 10% donkey serum, and 0.1% Triton X-100 in PBS) and incubated with primary antibodies (Gne/Mnk 1:50; laminin 1:25; dystrophin 1:50) overnight at 4° C., followed by incubation with the secondary antibody, Alexa Fluor 488-conjugated donkey anti-rabbit (1:500 in blocking solution) (Invitrogen). The sections were mounted in VECTASHIELD Mounting Medium (Vector Laboratories) and viewed and digitally imaged with a Zeiss Axiovert 200M microscope (Zeiss).
as §1

Gne^M712T/M712T mice [4] = test: Electron microscopy of kidney glomeruli after ManNAc treatment; type: in vivo, mouse; details: age P19, versus untreated Gne^M712T/M712T
Description: Kidney samples were fixed overnight at 4° C. in 2% glutaraldehyde in 0.1 M cacodylate buffer (pH 7.4) and washed with cacodylate buffer. After postfixation with 1% OsO4 for 2 hours and a second wash with 0.1 M cacodylate buffer, the tissues were serially dehydrated in ethanol and embedded in Eponate 12 resin (Ted Pella). Thin sections (˜80 nm) were obtained using a Leica Ultracut UCT Ultramicrotome (Leica Microsystems), placed onto 400 mesh copper grids, and stained with saturated uranyl acetate in 50% methanol followed by lead citrate. The grids were viewed with a Philips 410 electron microscope (FEI Company) at 80 kV, and images were recorded on Kodak SO-163 film (Kodak).
as §1

Gne/Mnk epimerase = test: Gne-epimerase enzymatic assay in skeletal muscle of ManNAc-treated mice; type: in vivo, mouse
Description: as §1
Mouse kidney and skeletal muscle (quadriceps) tissues were homogenized and subjected to the Gne-epimerase enzymatic assay as previously described (11, 58). This assay was based on incubation with radiolabeled substrate (Uridine diphosphate N-acetyl glucosamine [1-^3H]; American Radiolabeled Chemicals Inc.) and detection of radiolabeled product ([^3H]ManNAc) upon separation of oligosaccharides by high-pH anion-exchange chromatography with pulsed amperometric detection (Dionex).

Gne/Mnk protein = test: Immunoblots of muscle and kidney extracts with anti-Gne/Mnk antibodies; type: in vivo, mouse
From the text: (§2) A rabbit polyclonal antibody was custom prepared against a Gne/Mnk peptide comprising amino acids 588-607 ([…], SEQ ID NO:8), coupled to keyhole limpet hemocyanine, and affinity purified against the corresponding antigenic peptide (Covance). The following additional primary antibodies were commercially obtained: dystrophin (catalog no. ab15277; Abcam); α-dystroglycan (clone IIH6C4; Upstate Biotechnology); laminin-1 (catalog no. L9393; Sigma-Aldrich); podocalyxin (catalog no. PODX11-A; Alpha Diagnostic International); podocin (catalog no. P0372; Sigma-Aldrich); laminin β1 (catalog no. MAB1928; Millipore); desmin (catalog no. 1466-1; Epitomics); α-SMA (SPM332; GeneTex Inc.); PSA-NCAM (catalog no. MAB5324; Millipore); and β-actin (catalog no. AAN01; Cytoskeleton).
Mouse tissues (age P2) were extracted, homogenized in CelLytic buffer consisting of a mild detergent, bicine buffer, and 150 mM NaCl (Sigma-Aldrich) supplemented with protease inhibitors (Complete Mini; Roche Applied Science). The lysates were sonicated and cleared by centrifugation (1000 g for 10 minutes), and the resulting supernatants were assayed for protein (BCA Protein Assay; Pierce Biotechnology). For the neuraminidase enzymatic treatments (FIG. 6E), protein homogenates ([…]) were incubated for 30 min at 37° C. with 1 mU/mg of neuraminidase (catalog no. N6514; Sigma-Aldrich). Equal amounts of protein ([…]) were electrophoresed on 4%-12% Tris-Glycine gels (Novex; Invitrogen), and electroblotted onto […] Hybond ECL nitrocellulose membranes (GE Healthcare). The membranes were blocked (10% fat-free milk) and incubated with primary antibodies followed by HRP-conjugated secondary antibodies (GE Healthcare). Results were visualized with ECL (ECL Western Blotting Detection Reagents; GE Healthcare) and exposure to CL-XPosure Film (Pierce Biotechnology). Densitometry was performed on the digital images obtained with a Kodak Image Station and software (PerkinElmer). The protein levels were normalized to those of β-actin to correct for differences in protein loading and/or transfer. […]

laminin-1 = test: Immunoblots of kidney extracts with laminin-1 antibodies; type: in vivo, mouse; details: Gne^+/+ and Gne^M712T/M712T littermates
From the text: as §2
(§3) Mouse tissues (age P2) were extracted, homogenized in CelLytic buffer consisting of a mild detergent, bicine buffer, and 150 mM NaCl (Sigma-Aldrich) supplemented with protease inhibitors (Complete Mini; Roche Applied Science). The lysates were sonicated and cleared by centrifugation (1000 g for 10 minutes), and the resulting supernatants were assayed for protein (BCA Protein Assay; Pierce Biotechnology). For the neuraminidase enzymatic treatments (FIG. 6E), protein homogenates (25 mg) were incubated for 30 min at 37° C. with 1 mU/mg of neuraminidase (catalog no. N6514; Sigma-Aldrich). […]

PSA-NCAM = test: Immunoblots with PSA-NCAM antibodies (sialylation status); type: in vivo, mouse
From the text: as §2
as §3, with “Biotechnology).” for “Biotechnology). For the neuraminidase enzymatic treatments (FIG. 6E), protein homogenates (25 mg) were incubated for 30 min at 37° C. with 1 mU/mg of neuraminidase (catalog no. N6514; Sigma-Aldrich).”
The degree of sialylation of two heavily sialylated marker proteins, PSA-NCAM and podocalyxin was evaluated. […]

podocalyxin = test: Immunoblots of kidney extracts with podocalyxin antibodies (sialylation status); type: in vivo, mouse; details: after ManNAc treatment, P2
From the text: as §2
The lysates were sonicated and cleared by centrifugation (1000 g for 10 minutes), and the resulting supernatants were assayed for protein (BCA Protein Assay; Pierce Biotechnology). For the neuraminidase enzymatic treatments (FIG. 6E), protein homogenates (25 mg) were incubated for 30 min at 37° C. with 1 mU/mg of neuraminidase (catalog no. N6514; Sigma-Aldrich). Equal amounts of protein ([…]) were electrophoresed on 4%-12% Tris-Glycine gels (Novex; Invitrogen), and electroblotted onto […] Hybond ECL nitrocellulose membranes (GE Healthcare). […]

[5] = tested on: Gne-deficient mouse embryonic stem cells; details: growth medium supplemented with ManNAc; cited from earlier work
[6] = single dose of 0.142 g/kg/day; cited from earlier work
[7] = ~1.0 g/kg/d in drinking water, mice
[8] = 3.5 months of age, ManNAc until P21

CC(=O)CCC(=O)N[C@@H]1C(O)O[C@H](CO)[C@@H](O)[C@@H]1O (stereo partly shown) [ManLev, N-levulinoylmannosamine]
incorporation of sialic acid analogs (SiaLev or SiaNAz) into cell surface glycoconjugates (cultured cells): incorporation of the downstream sialic acid analogs

CC(=O)N[C@H]1[C@@H](O)[C@H](O)[C@@H](CO)O[C@H]1O [ManNAc, N-acetyl-D-mannosamine]
pups died at age P1-P3 (number) (Gne^M712T/M712T mice [1]; 1 mg/ml (~0.2 g/kg/d), 7 litters): 13
surviving homozygous Gne^M712T/M712T mice beyond age P3 (Gne^M712T/M712T mice [1]; 1 mg/ml (~0.2 g/kg/day) in drinking water, 51 offspring): no surviving homozygous
homozygous mutant pups died at age P1-P3 (number) (Gne^M712T/M712T mice [1]; 5 mg/ml (~1 g/kg/d), 13 litters): 14
Gne^M712T/M712T mice that died between P6 and P12, of the twelve that survived past P3 (Gne^M712T/M712T mice [1]; 5 mg/ml (~1.0 g/kg/day)): nine
Gne^M712T/M712T pups surviving beyond P3 (number) (Gne^M712T/M712T mice [1]; 5 mg/ml (~1.0 g/kg/day) in drinking water, 102 newborns, P=0.01 vs 1 untreated survivor): 12
Gne^M712T/M712T mice that survived past P21 (Gne^M712T/M712T mice [1]; 5 mg/ml (~1.0 g/kg/day), ManNAc ceased at P21): Two
myopathic features of the surviving Gne^M712T/M712T mouse (Gne^M712T/M712T mice [1]; 6 months old, ManNAc until P21): no obvious myopathic features
survival beyond P3, share of Gne^M712T/M712T pups (Gne^M712T/M712T mice [1]; ManNAc administration): 43%
size of surviving Gne^M712T/M712T mice versus littermates ([2]; ManNAc ~1 g/kg/d): remained smaller than their littermates
weight of surviving Gne^M712T/M712T mice relative to wild-type littermates ([2]; ManNAc ~1.0 g/kg/day): 70%-100%
side effects [2, 7]: no side effects were attributed to the treatment
tolerability [2, 7]: well tolerated
kidney histology of Gne^M712T/M712T survivor (urinary space and tubules) (Gne^M712T/M712T mice [3]; [8]): mild red blood cell infiltrations
skeletal muscle histology of Gne^M712T/M712T survivor (Gne^M712T/M712T mice [3]; [8]): no structural or inflammatory abnormalities
cystic tubular dilatations in cortex and medulla (Gne^M712T/M712T mice [3]; age P6): fewer cystic tubular dilatations
kidney histology compared with untreated Gne^M712T/M712T mice at P2 (Gne^M712T/M712T mice [3]; age P6): significant histological improvement
abnormalities in liver, heart or skeletal muscle tissues (Gne^M712T/M712T mice [3]; age P6, treated Gne^M712T/M712T mice): no abnormalities
red blood cell infiltrates in tubules and Bowman space (Gne^M712T/M712T mice [3]; age P6, versus untreated at P2): reduced red blood cell infiltrates; also recorded: less severe
filtration slits / open slit diaphragms (Gne^M712T/M712T mice [4]): greater number of open slit diaphragms; also recorded: improved
overall integrity of the GBM (Gne^M712T/M712T mice [4]): significantly improved
podocyte foot processes (fusion, flattening, formation) (Gne^M712T/M712T mice [4]): less fusion and flattening; also recorded: improved
Gne activity in Gne^M712T/M712T muscle, of untreated Gne^+/+ mean (Gne/Mnk epimerase; homozygous mutant skeletal muscle, after ManNAc (19.4% untreated), n=7, P=0.05): 31% (±8.4)
Gne activity in Gne^+/+ muscle, of untreated Gne^+/+ mean (Gne/Mnk epimerase; wild-type skeletal muscle, after ManNAc, n=3, P=0.2): 114% (±19.7)
Gne/Mnk protein in Gne^M712T/M712T kidney compared with Gne^+/+ littermates (Gne/Mnk protein; after ManNAc (32.1% untreated), relative to β-actin, P=0.006): 62.2%
Gne/Mnk protein in Gne^M712T/M712T muscle compared with Gne^+/+ littermates (Gne/Mnk protein; after ManNAc (38.5% untreated), relative to β-actin, P=0.12): 68.8%
Gne/Mnk protein expression in Gne^M712T/M712T tissues versus untreated (Gne/Mnk protein; muscle and kidney, ManNAc feeding): increased
laminin-1 intensity / pattern in kidney without or with ManNAc treatment (laminin-1): No difference
PSA-NCAM expression in muscle and kidney upon treatment (PSA-NCAM; P2): no change
increase of PSA-NCAM signal intensity in Gne^M712T/M712T brain versus untreated (PSA-NCAM; brain extracts, P=0.08): 2%-28% and 2% to 28%
sialylation of podocalyxin in Gne^M712T/M712T kidney (podocalyxin): markedly improved; also recorded: changed significantly
sialylation of hyposialylated cells [5]: became resialylated
safety in humans [6]: evidence of the safety

[N-]=[N+]=NCC(=O)N[C@@H]1C(O)O[C@H](CO)[C@@H](O)[C@@H]1O (stereo partly shown) [ManNAz, N-azidoacetyl-mannosamine]
incorporation of sialic acid analogs (SiaLev or SiaNAz) into cell surface glycoconjugates (cultured cells): incorporation of the downstream sialic acid analogs

— patent US10953026B2, “N-acetyl mannosammine as a therapeutic agent” (THE UNITED STATES OF AMERICA, as represented by the …, priority 2007, dated 2021)
